Measured values taken from ChEMBL document CHEMBL1201862, “PubChem BioAssay data set” (2004).
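Briefly, cells in 96-well plates were exposed to five compound concentrations for 48 h, and endpoints were estimated by linear interpolation. Here, GI50 denotes the concentration required for 50% inhibition of growth.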 The source made the active and inactive calls. Rule as the data show it: active = GI50 up to about 1.1 µM and inactive = higher.

Legend:
Test in all cases: NCI tumour cell line growth inhibition, 48 h
NCI-H522 = test system: NCI-H522
PC-3 = test system: PC-3
ACHN = test system: ACHN
SK-OV-3 = test system: SK-OV-3
CCRF-CEM = test system: CCRF-CEM
SF-539 = test system: SF-539
RXF 393 = test system: RXF 393
DMS-114 = test system: DMS-114
T47D = test system: T47D
LXFL 529 = test system: LXFL 529
A498 = test system: A498
SK-MEL-5 = test system: SK-MEL-5
MDA-MB-231 = test system: MDA-MB-231
DMS-273 = test system: DMS-273
OVCAR-4 = test system: OVCAR-4
SF-268 = test system: SF-268
LOX IMVI = test system: LOX IMVI
IGROV-1 = test system: IGROV-1
TK-10 = test system: TK-10
NCI/ADR-RES = test system: NCI/ADR-RES

Structure (SMILES) | GI50 (NCI-H522) | GI50 (PC-3) | GI50 (ACHN) | GI50 (SK-OV-3) | GI50 (CCRF-CEM) | GI50 (SF-539) | GI50 (RXF 393) | GI50 (DMS-114) | GI50 (T47D) | GI50 (LXFL 529) | GI50 (A498) | GI50 (SK-MEL-5) | GI50 (MDA-MB-231) | GI50 (DMS-273) | GI50 (OVCAR-4) | GI50 (SF-268) | GI50 (LOX IMVI) | GI50 (IGROV-1) | GI50 (TK-10) | GI50 (NCI/ADR-RES)
COc1c(C=O)c2c(c(OC)c1OC)-c1ccc(OC)c(=O)cc1[C@@H](NC(C)=O)CC2 | 0.0123 µM (active) | 0.0375 µM (active) | 1.17 µM (inactive) | 1.2 µM (inactive) | < 0.0128 µM (active) | 0.0237 µM (active) | 0.148 µM (active) | < 0.0146 µM (active) | > 100 µM (inactive) | 0.0191 µM (active) | 0.347 µM (active) | 0.0241 µM (active) | 0.352 µM (active) | 0.029 µM (active) | 38.9 µM (inactive) | 0.0444 µM (active) | 0.015 µM (active) | 0.0461 µM (active) | 3.83 µM (inactive) | –
CN1CCN(CCCN2c3ccccc3Sc3ccc(C(F)(F)F)cc32)CC1 | – | 4.72 µM (inactive) | 11.9 µM (inactive) | 14.6 µM (inactive) | – | 7.28 µM (inactive) | – | 10 µM (inactive) | 10 µM (inactive) | 10.2 µM (inactive) | 13.6 µM (inactive) | 3.09 µM (inactive) | – | 6.65 µM (inactive) | 13.5 µM (inactive) | 12.4 µM (inactive) | 4.57 µM (inactive) | – | – | 11.6 µM (inactive)
Cc1ccc(C)c(NC(=O)C(=O)CC(=O)c2cccc3ccccc23)c1 | > 100 µM (inactive) | – | > 100 µM (inactive) | > 100 µM (inactive) | > 100 µM (inactive) | > 100 µM (inactive) | > 100 µM (inactive) | > 100 µM (inactive) | – | > 100 µM (inactive) | > 100 µM (inactive) | > 100 µM (inactive) | – | > 100 µM (inactive) | > 100 µM (inactive) | > 100 µM (inactive) | > 100 µM (inactive) | > 100 µM (inactive) | > 100 µM (inactive) | –
CCc1cccc(CC)c1NC(=S)NC(=O)c1ccc(Br)cc1 | 17.6 µM (inactive) | 24.3 µM (inactive) | 32.4 µM (inactive) | 64.9 µM (inactive) | 17.7 µM (inactive) | 33.1 µM (inactive) | 19.1 µM (inactive) | 28.2 µM (inactive) | 21.9 µM (inactive) | 43.1 µM (inactive) | 33.6 µM (inactive) | 26.4 µM (inactive) | 29 µM (inactive) | 49 µM (inactive) | 7.48 µM (inactive) | 45 µM (inactive) | > 39.4 µM (inactive) | 27.9 µM (inactive) | 25.3 µM (inactive) | 29.7 µM (inactive)
COc1ccc(C(=O)OC2C=COC(C)C2OC(=O)c2ccc(OC)cc2)cc1 (stereo not given) | 16.5 µM (inactive) | – | 42.4 µM (inactive) | > 100 µM (inactive) | 7 µM (inactive) | 18 µM (inactive) | 14.6 µM (inactive) | 17.5 µM (inactive) | – | 14.5 µM (inactive) | > 100 µM (inactive) | 16.7 µM (inactive) | – | 23.3 µM (inactive) | 24.9 µM (inactive) | 15.8 µM (inactive) | 14.7 µM (inactive) | 37 µM (inactive) | 52.6 µM (inactive) | –
CC1=CCC[C@@]2(C)C(CC[C@@H]2C(C)/C=C/C(C)C)c2ccc(cc2C(=O)O)C[C@@H](O)CC1 (stereo not given in full) | 13.5 µM (inactive) | – | 6.37 µM (inactive) | 18.1 µM (inactive) | 5.09 µM (inactive) | 8.55 µM (inactive) | 15.9 µM (inactive) | 18.5 µM (inactive) | – | 11.6 µM (inactive) | 20.2 µM (inactive) | 3.59 µM (inactive) | – | 14.4 µM (inactive) | 12.1 µM (inactive) | 14.2 µM (inactive) | 4.55 µM (inactive) | 12.3 µM (inactive) | 12.5 µM (inactive) | –
O=C(O)CC/C(=N\Nc1nsc2ccccc12)c1ccc(Cl)cc1 | 34.5 µM (inactive) | 20.9 µM (inactive) | 28.2 µM (inactive) | 32.6 µM (inactive) | 6.84 µM (inactive) | 31.5 µM (inactive) | 23.5 µM (inactive) | 25 µM (inactive) | 31.2 µM (inactive) | 19.4 µM (inactive) | 37 µM (inactive) | 22.2 µM (inactive) | 35.6 µM (inactive) | 20 µM (inactive) | 20.8 µM (inactive) | 21.9 µM (inactive) | 12.2 µM (inactive) | 30.1 µM (inactive) | 46.9 µM (inactive) | –
N#CC(C#N)=C(N)/C(C#N)=C/c1ccc(O)c(O)c1 | > 61.2 µM (inactive) | 37.7 µM (inactive) | > 85.7 µM (inactive) | > 100 µM (inactive) | 19.8 µM (inactive) | > 100 µM (inactive) | > 100 µM (inactive) | 25.1 µM (inactive) | 53.7 µM (inactive) | 40.7 µM (inactive) | > 100 µM (inactive) | 78.9 µM (inactive) | > 100 µM (inactive) | 59.2 µM (inactive) | 44.8 µM (inactive) | > 83.2 µM (inactive) | 52.8 µM (inactive) | > 55.1 µM (inactive) | > 100 µM (inactive) | 41.5 µM (inactive)
